The text below walks through data of patent US8846947B2, “Benzimidazoles and related analogs as sirtuin modulators” (GlaxoSmithKline LLC, priority 2008, dated 2014).

Like-named read-outs stand apart in the source and are kept apart here.

The assay deals with T1, SIRT1 (Homo sapiens, UniProt Q96EB6).
T1 sequence (Q96EB6 1-747): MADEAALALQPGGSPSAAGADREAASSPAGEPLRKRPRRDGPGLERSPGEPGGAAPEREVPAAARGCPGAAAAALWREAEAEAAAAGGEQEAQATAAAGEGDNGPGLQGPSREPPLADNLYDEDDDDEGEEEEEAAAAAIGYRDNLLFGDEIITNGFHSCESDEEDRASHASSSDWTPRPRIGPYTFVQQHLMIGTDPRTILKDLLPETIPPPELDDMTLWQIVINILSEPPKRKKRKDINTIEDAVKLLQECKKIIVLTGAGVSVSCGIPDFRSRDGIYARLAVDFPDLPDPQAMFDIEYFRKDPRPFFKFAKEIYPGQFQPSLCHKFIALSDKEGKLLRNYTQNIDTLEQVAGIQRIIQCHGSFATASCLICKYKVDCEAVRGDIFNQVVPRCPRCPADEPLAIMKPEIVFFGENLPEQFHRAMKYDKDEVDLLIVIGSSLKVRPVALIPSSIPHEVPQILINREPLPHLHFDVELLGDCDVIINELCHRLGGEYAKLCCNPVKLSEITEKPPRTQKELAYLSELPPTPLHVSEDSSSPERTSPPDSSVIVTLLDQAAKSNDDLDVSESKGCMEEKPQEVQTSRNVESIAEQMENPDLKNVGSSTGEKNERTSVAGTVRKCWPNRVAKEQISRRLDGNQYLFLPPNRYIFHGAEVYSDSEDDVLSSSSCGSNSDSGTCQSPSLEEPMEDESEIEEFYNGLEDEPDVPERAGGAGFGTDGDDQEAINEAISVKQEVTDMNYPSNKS
The experiment in a line: Mass spectrometry based SIRT1 deacetylase activation assay (acetylated p53-derived peptide substrate). Format: biochemical.

[1] abbreviates: 0.5 μM peptide substrate, 120 μM βNAD+, 10 nM SIRT1, 25 min at 25° C.
The mark [2] stands for this setting: 0.5 μM peptide substrate, 120 μM βNAD+, 10 nM SIRT1, 25 min at 25° C., read-out: EC1.5.
Setting [3] is: 0.5 μM peptide substrate, 120 μM βNAD+, 10 nM SIRT1, 25 minutes at 25° C.

On to `CC(C)(C)c1ccc(OCCN2CCOCC2)c(-c2nc3c(C(=O)Nc4ccccn4)cccc3[nH]2)c1` [Compound 548], for which, under setting [1], the “Fold Act. (percent maximum fold activation)” value is reported as “B (Fold Activation <200%)”. Further, under setting [2], the EC1.5 is under 1000 nM.

For `O=C(Nc1nccs1)c1cc(F)cc2nc(-c3cc(F)ccc3C(F)F)[nH]c12` [Compound 835], under setting [3], the EC1.5 result was “A (EC1.5<1.0 uM)” and the “Fold Act. (percent maximum fold activation)” value is “A (Fold activation >200%)”.

For `O=C(Nc1cccc(OCC(O)CO)c1)c1cccc2[nH]c(-c3cc(F)ccc3C(F)(F)F)nc12` (centres unmarked) [Compound 680], under setting [3], the EC1.5 entry is recorded as “A (EC1.5<1.0 uM)” and the “Fold Act. (percent maximum fold activation)” value is on record as “A (Fold activation >200%)”.

In the case of `O=C(Nc1cccc(OC[C@H](O)CO)c1)c1cccc2[nH]c(-c3cc(F)cc(F)c3)nc12` [Compound 786], under setting [3], the EC1.5 result was “A (EC1.5<1.0 uM)” and the “Fold Act. (percent maximum fold activation)” value is “A (Fold activation >200%)”.

For `O=C(Nc1nccs1)c1cccc2[nH]c(-c3cccc(F)c3)nc12` [Compound 212], the EC1.5 result was “B (EC1.5 1-25 uM)” and the “Fold Act. (percent maximum fold activation)” value is recorded as “A (Fold activation >200%)”.

`O=C(Nc1ccccn1)c1cc(N2CCOCC2)cc2[nH]c(-c3cc(F)ccc3C(F)F)nc12` [Compound 769]: under setting [3], the EC1.5 entry was “A (EC1.5<1.0 uM)” and the “Fold Act. (percent maximum fold activation)” value is “A (Fold activation >200%)”.

As to `Cc1cnc(NC(=O)c2cncc3[nH]c(-c4ccc(N5CCCC5)cc4C(F)F)nc23)s1` [Compound 800], under setting [3], the EC1.5 result is reported as “A (EC1.5<1.0 uM)” and the “Fold Act. (percent maximum fold activation)” value is “A (Fold activation >200%)”.

In the case of `O=C(Nc1cccnc1)c1cc(N2CCCC2)cc2[nH]c(-c3ccccc3C(F)F)nc12` [Compound 792], under setting [3], the EC1.5 result is “A (EC1.5<1.0 uM)” and the “Fold Act. (percent maximum fold activation)” value is “A (Fold activation >200%)”.

On to `CN1CCN(c2cccc(-c3nc4c(C(=O)Nc5ccccn5)cccc4[nH]3)c2)CC1` [Compound 528], for which the “Fold Act. (percent maximum fold activation)” value under setting [1] was “A (Fold activation >200%)”. Besides, the EC1.5 under setting [2] is under 1000 nM.

As for `O=C(Nc1cccc(OC[C@H](O)CO)c1)c1cccc2[nH]c(-c3cc(F)ccc3C(F)F)nc12` [Compound 719], under setting [3], the EC1.5 entry is given as “A (EC1.5<1.0 uM)” and the “Fold Act. (percent maximum fold activation)” value is listed as “A (Fold activation >200%)”.

With `O=C(Nc1cccc2[nH]c(-c3ccnn3-c3ccccc3)nc12)c1cscn1` [Compound 392], the EC1.5 entry was “B (EC1.5 1-25 uM)” and the “Fold Act. (percent maximum fold activation)” value is “A (Fold activation >200%)”.

Turning to `O=C(Nc1ccccn1)c1cccc2[nH]c(-c3ccnc(N4CCCC4)c3)nc12` [Compound 540], under setting [1], the “Fold Act. (percent maximum fold activation)” value was “A (Fold activation >200%)”. Under setting [2], the EC1.5 is under 1000 nM.

Consider `Cc1nc(-c2ccccc2)c(-c2nc3c(C(=O)Nc4nccs4)cccc3[nH]2)s1` [Compound 368], for which the EC1.5 result is “A (EC1.5<1.0 uM)” and the “Fold Act. (percent maximum fold activation)” value was “A (Fold activation >200%)”.

Take `O=C(Nc1nccs1)c1cccc2[nH]c(-c3ccc(F)cc3C(F)F)nc12` [Compound 559, 2-(2-(difluoromethyl)-4-fluorophenyl)-N-(thiazol-2-yl)-1H-benzo[d]imidazole-4-carboxamide]: the “Fold Act. (percent maximum fold activation)” value under setting [1] was “A (Fold activation >200%)”. For the same molecule, the EC1.5 under setting [2] was under 1000 nM.

For the molecule `O=C(Nc1nccs1)c1cccc2[nH]c(-c3cc(C(F)(F)F)ccc3F)nc12` [Compound 218], the EC1.5 entry was “B (EC1.5 1-25 uM)” and the “Fold Act. (percent maximum fold activation)” value is “A (Fold activation >200%)”.

Turning to `O=C(Nc1cccc(OC[C@H](O)CO)c1)c1cncc2[nH]c(-c3ccc(Cl)cc3C(F)F)nc12` [Compound 715], under setting [3], the EC1.5 result was “A (EC1.5<1.0 uM)” and the “Fold Act. (percent maximum fold activation)” value is “A (Fold activation >200%)”.

Take `O=C(NCc1ccccn1)c1cccc2[nH]c(-c3ccc(F)cc3C(F)(F)F)nc12` [Compound 435]: under setting [1], the “Fold Act. (percent maximum fold activation)” value is “B (Fold Activation <200%)”. Besides, under setting [2], the EC1.5 fell in the range of 1000 to 25000 nM.

`O=C(Nc1nccs1)c1cccc2[nH]c(-c3ccc(OC[C@H](O)CO)cc3C(F)(F)F)nc12` [Compound 742]: under setting [3], the EC1.5 entry is “A (EC1.5<1.0 uM)” and the “Fold Act. (percent maximum fold activation)” value is recorded as “A (Fold activation >200%)”.

Turning to `Cc1cnc(NC(=O)c2cccc3[nH]c(-c4c(C(F)(F)F)nn(C)c4Cl)nc23)s1` [Compound 495], the “Fold Act. (percent maximum fold activation)” value under setting [1] is reported as “A (Fold activation >200%)”. In addition, the EC1.5 under setting [2] is under 1000 nM.

For the molecule `CC1(C)CN(c2ccc(-c3nc4c(C(=O)Nc5nccs5)cccc4[nH]3)c(C(F)(F)F)c2)CCO1` [Compound 706], under setting [3], the EC1.5 entry was “A (EC1.5<1.0 uM)” and the “Fold Act. (percent maximum fold activation)” value is on record as “A (Fold activation >200%)”.

As for `Cc1cnc(NC(=O)c2cccc3[nH]c(-c4cnc5c(c4)OCCN5C)nc23)s1` [Compound 440], under setting [1], the “Fold Act. (percent maximum fold activation)” value was “A (Fold activation >200%)”. Also, the EC1.5 under setting [2] was under 1000 nM.

In the case of `Cc1nc(C)c(-c2nc3c(C(=O)Nc4cccnc4)cccc3[nH]2)s1` [Compound 319], the EC1.5 entry is given as “A (EC1.5<1.0 uM)” and the “Fold Act. (percent maximum fold activation)” value is recorded as “A (Fold activation >200%)”.

As to `O=C(Nc1ccncc1)c1cccc2[nH]c(-c3ccc(Cl)cc3C(F)(F)F)nc12` [Compound 315], the EC1.5 result is “A (EC1.5<1.0 uM)” and the “Fold Act. (percent maximum fold activation)” value is “A (Fold activation >200%)”.

As for `O=C(Nc1nccs1)c1cccc2[nH]c(-c3cccc(N4CCCCC4)c3)nc12` [Compound 225], the EC1.5 entry was “B (EC1.5 1-25 uM)” and the “Fold Act. (percent maximum fold activation)” value is recorded as “A (Fold activation >200%)”.

Turning to `O=C(Nc1ccccn1)c1cccc2[nH]c(-c3cccc(C(F)(F)F)c3)nc12` [Compound 233], the EC1.5 result is “B (EC1.5 1-25 uM)” and the “Fold Act. (percent maximum fold activation)” value is reported as “A (Fold activation >200%)”.

For `O=C(Nc1cccnc1)c1cccc2[nH]c(-c3cccc(N4CCOCC4)c3)nc12` [Compound 288], the EC1.5 entry is reported as “A (EC1.5<1.0 uM)” and the “Fold Act. (percent maximum fold activation)” value is recorded as “A (Fold activation >200%)”.

On to `C[C@@H]1CN(c2ccc(C(F)(F)F)c(-c3nc4c(C(=O)Nc5nccs5)cccc4[nH]3)c2)C[C@H](C)O1` [Compound 662], for which, under setting [3], the EC1.5 entry is on record as “B (EC1.5 1-25 uM)” and the “Fold Act. (percent maximum fold activation)” value is recorded as “A (Fold activation >200%)”.

`C[C@@H]1CN(CCOc2ccccc2-c2nc3c(C(=O)Nc4nccs4)cccc3[nH]2)C[C@H](C)O1` [Compound 578]: the “Fold Act. (percent maximum fold activation)” value under setting [1] was “B (Fold Activation <200%)”. Under setting [2], the EC1.5 is 1000 to 25000 nM.

Consider `CC(C)N1CCN(c2cccc(-c3nc4c(C(=O)Nc5nccs5)cccc4[nH]3)c2)CC1` [Compound 529], for which the “Fold Act. (percent maximum fold activation)” value under setting [1] is recorded as “A (Fold activation >200%)”. Besides, the EC1.5 under setting [2] was under 1000 nM.

For `O=C(NC1CCOC1=O)c1cccc2[nH]c(-c3cc(F)ccc3C(F)(F)F)nc12` (centres unmarked) [Compound 378], the EC1.5 result is reported as “C (EC1.5 >25 uM)” and the “Fold Act. (percent maximum fold activation)” value was “B (Fold Activation <200%)”.

As for `O=C1COc2ccc(-c3nc4c(C(=O)Nc5cccnc5)cccc4[nH]3)cc2N1` [Compound 533], under setting [1], the “Fold Act. (percent maximum fold activation)” value is reported as “B (Fold Activation <200%)”. The EC1.5 under setting [2] was over 25000 nM.

As for `O=C(Nc1cccc(OC[C@H](O)CO)c1)c1cncc2[nH]c(-c3ccc(Cl)cc3C(F)(F)F)nc12` [Compound 739], under setting [3], the EC1.5 entry is given as “A (EC1.5<1.0 uM)” and the “Fold Act. (percent maximum fold activation)” value is listed as “A (Fold activation >200%)”.

For `O=C(Nc1cccnn1)c1cc(N2CCOCC2)cc2[nH]c(-c3ccccc3C(F)(F)F)nc12` [Compound 631], under setting [3], the EC1.5 result is “A (EC1.5<1.0 uM)” and the “Fold Act. (percent maximum fold activation)” value is “A (Fold activation >200%)”.

For `Cc1cnc(NC(=O)c2cccc3[nH]c(-c4ccc5c(c4)CC(C)(C)O5)nc23)s1` [Compound 500], the “Fold Act. (percent maximum fold activation)” value under setting [1] was “A (Fold activation >200%)”. Under setting [2], the EC1.5 was under 1000 nM.

Take `O=C(Nc1cccnn1)c1cccc2[nH]c(-c3cccc(C(F)(F)F)c3)nc12` [Compound 300]: the EC1.5 result was “A (EC1.5<1.0 uM)” and the “Fold Act. (percent maximum fold activation)” value is recorded as “A (Fold activation >200%)”.

On to `Cc1cnc(NC(=O)c2cccc3[nH]c(-c4ccc(OC5CCNCC5)cc4)nc23)s1` [Compound 537], for which, under setting [1], the “Fold Act. (percent maximum fold activation)” value is given as “A (Fold activation >200%)”. The EC1.5 under setting [2] was under 1000 nM.

As to `O=C(Nc1nccs1)c1cccc2[nH]c(-c3ccc(N4CCOCC4)cc3C(F)F)nc12` [Compound 551, 2-(2-(difluoromethyl)-4-morpholinophenyl)-N-(thiazol-2-yl)-1H-benzo[d]imidazole-4-carboxamide], under setting [1], the “Fold Act. (percent maximum fold activation)” value is “A (Fold activation >200%)”. The EC1.5 under setting [2] is under 1000 nM.
